In assay [1] the test system is Mino cells. The experiment in a line: Antiproliferative effect, MTS cell viability assay, Mino cells. Format: cell-based. Particulars: Homo sapiens, MINO, Mino mantle cell lymphoma cells; read-out: IC50 (anti-proliferation) Mino cells. A digest of the protocol:
(§1)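 Tested at six concentrations (0 to 10 μM in tenfold steps), 72 h; viability by MTS, A490.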
In general terms: Tetrazolium assays rely on reduction of a dye to a coloured formazan, in cell work by metabolically active cells.

Assay [2] deals with BTK (Homo sapiens, UniProt Q06187). The experiment in a line: Degradation of BTK protein in Namalwa cells (Western blot; DC50, Dmax). Particulars: for DC50: BTK degradation, cell line not given.
Assay [3] concerns JeKo-1 cells. The assay can be described thus: Antiproliferative effect, MTS cell viability assay, JeKo-1 cells. Format: cell-based. The conditions noted are these: Homo sapiens; JeKo-1 mantle cell lymphoma cells; read-out: IC50 (anti-proliferation) JeKO-1 cells. In a few lines: as §1

The Dmax is the largest share of the target that was removed. High values mean a fuller loss of target, low ones a partial loss of target. What is called DC50 is the concentration giving 50% degradation. A high value points to a less potent degrader.

Sequence of BTK (Q06187 whole entry): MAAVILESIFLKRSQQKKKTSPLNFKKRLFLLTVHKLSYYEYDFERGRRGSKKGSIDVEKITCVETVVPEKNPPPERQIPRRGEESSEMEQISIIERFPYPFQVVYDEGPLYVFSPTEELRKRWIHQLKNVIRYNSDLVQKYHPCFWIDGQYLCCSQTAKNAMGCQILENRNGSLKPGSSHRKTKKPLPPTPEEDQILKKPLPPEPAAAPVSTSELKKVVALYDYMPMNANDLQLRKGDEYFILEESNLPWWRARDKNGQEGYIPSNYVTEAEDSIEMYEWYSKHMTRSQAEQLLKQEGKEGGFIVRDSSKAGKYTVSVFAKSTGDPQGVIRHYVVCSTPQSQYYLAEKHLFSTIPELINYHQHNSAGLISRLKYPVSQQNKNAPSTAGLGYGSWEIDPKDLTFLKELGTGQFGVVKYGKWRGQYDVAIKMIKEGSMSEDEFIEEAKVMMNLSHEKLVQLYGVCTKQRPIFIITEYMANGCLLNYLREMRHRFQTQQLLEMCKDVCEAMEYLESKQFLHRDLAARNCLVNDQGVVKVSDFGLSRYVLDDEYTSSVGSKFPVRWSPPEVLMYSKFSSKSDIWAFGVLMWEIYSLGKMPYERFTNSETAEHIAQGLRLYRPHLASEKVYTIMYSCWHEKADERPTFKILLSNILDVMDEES

For the compound `Nc1ncnc2c1c(-c1ccc(Oc3ccccc3)cc1)nn2C1CCN(C2CCN(C(=O)N3CCC(CCCN4CCN(c5ccc6c(c5)CN(C5CCC(=O)NC5=O)C6=O)CC4)CC3)CC2)CC1` (stereo not drawn) [Compound 264, 3-(5-(4-(3-(1-(4-(4-amino-3-(4-phenoxyphenyl)-1H-pyrazolo[3,4-d]pyrimidin-1-yl)-[1,4′-bipiperidine]-1′-carbonyl)piperidin-4-yl)propyl)piperazin-1-yl)-1-oxoisoindolin-2-yl)piperidine-2,6-dione], the IC50 in assay [1] lay in the range of 1000 to 10000 nM. In assay [2], the greatest degradation seen (Dmax) is more than 75% and the 50% degradation concentration (DC50) is 10 to 50 nM. Also, the IC50 in assay [3] is more than 10000 nM.

As to `Nc1ncnc2c1c(-c1ccc(Oc3ccccc3)cc1)nn2C1CCN(C2CCN(C(=O)N3CCC(CCCC4CCN(c5ccc6c(c5)C(=O)N(C5CCC(=O)NC5=O)C6=O)CC4)CC3)CC2)CC1` (stereo not drawn) [Compound 265, 5-(4-(3-(1-(4-(4-amino-3-(4-phenoxyphenyl)-1H-pyrazolo[3,4-d]pyrimidin-1-yl)-[1,4′-bipiperidine]-1′-carbonyl)piperidin-4-yl)propyl)piperidin-1-yl)-2-(2,6-dioxopiperidin-3-yl)isoindoline-1,3-dione], the IC50 in assay [1] was 1000 to 10000 nM. Also, in assay [2], the Dmax is more than 75% and the DC50 was 10 to 50 nM. The IC50 in assay [3] was 1000 to 10000 nM.

Turning to `Nc1ncnc2c1c(-c1ccc(Oc3ccccc3)cc1)nn2C1CCN(C2CCN(C(=O)N3CCC(CCCC4CCN(c5ccc6c(c5)CN(C5CCC(=O)NC5=O)C6=O)CC4)CC3)CC2)CC1` (stereo not drawn) [Compound 266, 3-(5-(4-(3-(1-(4-(4-amino-3-(4-phenoxyphenyl)-1H-pyrazolo[3,4-d]pyrimidin-1-yl)-[1,4′-bipiperidine]-1′-carbonyl)piperidin-4-yl)propyl)piperidin-1-yl)-1-oxoisoindolin-2-yl)piperidine-2,6-dione], the IC50 in assay [1] was 1000 to 10000 nM; in assay [3], more than 10000 nM. In assay [2], this compound yielded a Dmax of more than 75%. The DC50 in assay [2] was 10 to 50 nM.

With `Nc1ncnc2c1c(-c1ccc(Oc3ccccc3)cc1)nn2C1CCN(C2CCN(C(=O)N3CCC(CCCN4CCC(c5ccc6c(c5)C(=O)N(C5CCC(=O)NC5=O)C6=O)CC4)CC3)CC2)CC1` (stereo not drawn) [Compound 267, 5-(1-(3-(1-(4-(4-amino-3-(4-phenoxyphenyl)-1H-pyrazolo[3,4-d]pyrimidin-1-yl)-[1,4′-bipiperidine]-1′-carbonyl)piperidin-4-yl)propyl)piperidin-4-yl)-2-(2,6-dioxopiperidin-3-yl)isoindoline-1,3-dione], the IC50 in assay [1] fell in the range of 1000 to 10000 nM. For the same compound, in assay [2], the Dmax is more than 90% and the DC50 lay in the range of 10 to 50 nM. Further, the IC50 in assay [3] lay in the range of 1000 to 10000 nM.

In the case of `Nc1ncnc2c1c(-c1ccc(Oc3ccccc3)cc1)nn2C1CCN(C2CCN(C(=O)N3CCC(CCCN4CCC(c5ccc6c(c5)CN(C5CCC(=O)NC5=O)C6=O)CC4)CC3)CC2)CC1` (stereo not drawn) [Compound 268, 3-(5-(1-(3-(1-(4-(4-amino-3-(4-phenoxyphenyl)-1H-pyrazolo[3,4-d]pyrimidin-1-yl)-[1,4′-bipiperidine]-1′-carbonyl)piperidin-4-yl)propyl)piperidin-4-yl)-1-oxoisoindolin-2-yl)piperidine-2,6-dione], the IC50 was less than 1000 nM in assay [1] and 1000 to 10000 nM in assay [3]. In addition, in assay [2], the greatest degradation seen (Dmax) was more than 90%. In assay [2], the DC50 was 10 to 50 nM.

Consider `NC(=O)c1c(-c2ccc(Oc3ccccc3)cc2)nn2c1NCCC2C1CCN(CCOCCOCCN2CCN(c3ccc4c(c3)C(=O)N(C3CCC(=O)NC3=O)C4=O)CC2)CC1` (stereo not drawn) [Compound 269, 7-(1-(2-(2-(2-(4-(2-(2,6-dioxopiperidin-3-yl)-1,3-dioxoisoindolin-5-yl)piperazin-1-yl)ethoxy)ethoxy)ethyl)piperidin-4-yl)-2-(4-phenoxyphenyl)-4,5,6,7-tetrahydropyrazolo[1,5-a]pyrimidine-3-carboxamide], for which the IC50 in assay [1] and in assay [3] was more than 10000 nM each time. This compound also had a Dmax in assay [2] of more than 90%. In assay [2], this compound yielded a DC50 of 10 to 50 nM.

Consider `NC(=O)c1c(-c2ccc(Oc3ccccc3)cc2)nn2c1NCCC2C1CCN(CCOCCOCCN2CCN(c3ccc4c(c3)CN(C3CCC(=O)NC3=O)C4=O)CC2)CC1` (stereo not drawn) [Compound 270, 7-(1-(2-(2-(2-(4-(2-(2,6-dioxopiperidin-3-yl)-1-oxoisoindolin-5-yl)piperazin-1-yl)ethoxy)ethoxy)ethyl)piperidin-4-yl)-2-(4-phenoxyphenyl)-4,5,6,7-tetrahydropyrazolo[1,5-a]pyrimidine-3-carboxamide], for which the IC50 in assay [1] was in the range of 1000 to 10000 nM. In assay [2], this compound returned a Dmax of more than 90% and a half-maximal degradation concentration (DC50) of 10 to 50 nM. Further, the IC50 in assay [3] is more than 10000 nM.

For `NC(=O)c1c(-c2ccc(Oc3ccccc3)cc2)nn2c1NCC[C@H]2C1CCN(CCOCCOCCN2CCN(c3ccc4c(c3)C(=O)N(C3CCC(=O)NC3=O)C4=O)CC2)CC1` (stereo partly drawn) [Compound 271, (7S)-7-(1-(2-(2-(2-(4-(2-(2,6-dioxopiperidin-3-yl)-1,3-dioxoisoindolin-5-yl)piperazin-1-yl)ethoxy)ethoxy)ethyl)piperidin-4-yl)-2-(4-phenoxyphenyl)-4,5,6,7-tetrahydropyrazolo[1,5-a]pyrimidine-3-carboxamide], in assay [1], the IC50 fell in the range of 1000 to 10000 nM. In addition, in assay [2], the greatest degradation seen (Dmax) was more than 90% and the DC50 lay within 10 to 50 nM. Besides, in assay [3], the IC50 is more than 10000 nM.

`NC(=O)c1c(-c2ccc(Oc3ccccc3)cc2)nn2c1NCC[C@H]2C1CCN(CCOCCOCCN2CCN(c3ccc4c(c3)CN(C3CCC(=O)NC3=O)C4=O)CC2)CC1` (stereo partly drawn) [Compound 272, (7S)-7-(1-(2-(2-(2-(4-(2-(2,6-dioxopiperidin-3-yl)-1-oxoisoindolin-5-yl)piperazin-1-yl)ethoxy)ethoxy)ethyl)piperidin-4-yl)-2-(4-phenoxyphenyl)-4,5,6,7-tetrahydropyrazolo[1,5-a]pyrimidine-3-carboxamide]: the IC50 in assay [1] is 1000 to 10000 nM. In assay [2], this compound yielded a Dmax of more than 90% and a DC50 of 10 to 50 nM. Besides, the IC50 in assay [3] is more than 10000 nM.

Take `NC(=O)c1c(-c2ccc(Oc3ccccc3)cc2)nn2c1NCCC2C1CCN(C(=O)N2CCN(CC3CCN(c4ccc5c(c4)C(=O)N(C4CCC(=O)NC4=O)C5=O)CC3)CC2)CC1` (stereo not drawn) [Compound 273, 7-(1-(4-((1-(2-(2,6-dioxopiperidin-3-yl)-1,3-dioxoisoindolin-5-yl)piperidin-4-yl)methyl)piperazine-1-carbonyl)piperidin-4-yl)-2-(4-phenoxyphenyl)-4,5,6,7-tetrahydropyrazolo[1,5-a]pyrimidine-3-carboxamide]: in assay [1], the IC50 is less than 1000 nM. Besides, in assay [2], the Dmax is more than 90% and the DC50 is 10 to 50 nM. The IC50 in assay [3] fell in the range of 1000 to 10000 nM.

Take `NC(=O)c1c(-c2ccc(Oc3ccccc3)cc2)nn2c1NCCC2C1CCN(C(=O)N2CCN(CC3CCN(c4ccc5c(c4)CN(C4CCC(=O)NC4=O)C5=O)CC3)CC2)CC1` (stereo not drawn) [Compound 274, 7-(1-(4-((1-(2-(2,6-dioxopiperidin-3-yl)-1-oxoisoindolin-5-yl)piperidin-4-yl)methyl)piperazine-1-carbonyl)piperidin-4-yl)-2-(4-phenoxyphenyl)-4,5,6,7-tetrahydropyrazolo[1,5-a]pyrimidine-3-carboxamide]: in assay [1], the IC50 is less than 1000 nM. In assay [2], the Dmax was more than 90% and the half-maximal degradation concentration (DC50) is less than 10 nM. Further, in assay [3], the IC50 was less than 1000 nM.

As for `NC(=O)c1c(-c2ccc(Oc3ccccc3)cc2)nn2c1NCCC2C1CCN(C(=O)N2CCC(CN3CCN(c4ccc5c(c4)C(=O)N(C4CCC(=O)NC4=O)C5=O)CC3)CC2)CC1` (stereo not drawn) [Compound 275, 7-(1-(4-((4-(2-(2,6-dioxopiperidin-3-yl)-1,3-dioxoisoindolin-5-yl)piperazin-1-yl)methyl)piperidine-1-carbonyl)piperidin-4-yl)-2-(4-phenoxyphenyl)-4,5,6,7-tetrahydropyrazolo[1,5-a]pyrimidine-3-carboxamide], the IC50 in assay [1] was in the range of 1000 to 10000 nM. In assay [2], this compound registered a Dmax of more than 90% and a half-maximal degradation concentration (DC50) of less than 10 nM. Besides, the IC50 in assay [3] was 1000 to 10000 nM.

Regarding `NC(=O)c1c(-c2ccc(Oc3ccccc3)cc2)nn2c1NCCC2C1CCN(C(=O)N2CCC(CN3CCN(c4ccc5c(c4)CN(C4CCC(=O)NC4=O)C5=O)CC3)CC2)CC1` (stereo not drawn) [Compound 276, 7-(1-(4-((4-(2-(2,6-dioxopiperidin-3-yl)-1-oxoisoindolin-5-yl)piperazin-1-yl)methyl)piperidine-1-carbonyl)piperidin-4-yl)-2-(4-phenoxyphenyl)-4,5,6,7-tetrahydropyrazolo[1,5-a]pyrimidine-3-carboxamide], in assay [1], the IC50 is less than 1000 nM. In assay [2], this compound gave a maximal degradation (Dmax) of more than 90% and a DC50 of less than 10 nM. For the same compound, the IC50 in assay [3] was less than 1000 nM.

For the compound `NC(=O)c1c(-c2ccc(Oc3ccccc3)cc2)nn2c1NCCC2C1CCN(C(=O)N2CCC(CC3CCN(c4ccc5c(c4)C(=O)N(C4CCC(=O)NC4=O)C5=O)CC3)CC2)CC1` (stereo not drawn) [Compound 277, 7-(1-(4-((1-(2-(2,6-dioxopiperidin-3-yl)-1,3-dioxoisoindolin-5-yl)piperidin-4-yl)methyl)piperidine-1-carbonyl)piperidin-4-yl)-2-(4-phenoxyphenyl)-4,5,6,7-tetrahydropyrazolo[1,5-a]pyrimidine-3-carboxamide], in assay [1], the IC50 was less than 1000 nM. Besides, in assay [2], the Dmax was more than 90% and the DC50 is less than 10 nM. For the same compound, in assay [3], the IC50 fell in the range of 1000 to 10000 nM.

Take `NC(=O)c1c(-c2ccc(Oc3ccccc3)cc2)nn2c1NCCC2C1CCN(C(=O)N2CCC(CC3CCN(c4ccc5c(c4)CN(C4CCC(=O)NC4=O)C5=O)CC3)CC2)CC1` (stereo not drawn) [Compound 278, 7-(1-(4-((1-(2-(2,6-dioxopiperidin-3-yl)-1-oxoisoindolin-5-yl)piperidin-4-yl)methyl)piperidine-1-carbonyl)piperidin-4-yl)-2-(4-phenoxyphenyl)-4,5,6,7-tetrahydropyrazolo[1,5-a]pyrimidine-3-carboxamide]: in assay [1], the IC50 was less than 1000 nM. In assay [2], this compound came in with a Dmax of more than 90% and a DC50 of less than 10 nM. Moreover, in assay [3], the IC50 is 1000 to 10000 nM.

(Values after patent publication US12139492B2 (Endotarget Inc., priority 2021, dated 2024).)
